Data taken from patent publication US20080226565A1, “Anticariogenic Proteins & Peptides & Saccharides” (priority 2004, published 2008).

Columns and labels:
[1] = test system: aerobes isolated from the oral cavity; assay: Susceptibility (MIC), agar dilution, aerobes from the oral cavity; format: cell-based, aerobic bacteria; details: for activity against aerobes: explored range 0.2 to 3.5 mg/ml
Description: (§1) The investigations included more than hundred strains isolated from the oral cavity: : anaerobes, microaerophilic bacteria, aerobes, Streptococcus spp. and yeast like fungi. The microorganisms were isolated from saliva, mucosal membrane, gingival pockets and caries decay. The susceptibility (MIC) of bacteria and yeastlike fungi were determined by means of plate dilution technique in agar.
The investigated samples were dissolved in sterile distilled water (immediately before the experiment) to obtain the following concentrations: 3.5, 1.7, 0.8, 0.4 and 0.2 mg/ml and were added into appropriate agar. The plates were inoculated using a Steers multipoint inoculator. Inoculum contained 10^6 CFU/spot. In each experimental series, the growth of strains on the culture medium without the compounds investigated was checked. The concentration at which no macroscopic growth of the microbes was observed on the medium was regarded as the lowest concentration, inhibiting the growth of microbes (MIC). The examinations of the susceptibility of microbes to the peptides were carried out twice.
Anaerobes. The susceptibility of bacteria was determined by means of the agar dilution methods with Brucella agar supplemented with 5% defibrinated sheep's blood, menadione and hemin. Sample solutions with concentrations from of 3.5-0.2 mg/ml were added into agar. The agar plate without investigated samples was included as a bacterial growth control. The inoculum of 10^6 CFU/ml was applied to the agar plates with Steers replicator. Incubation was performed for 48 hrs at 37° C. (310° K) in anaerobic jars containing a mixture of 10% CO2, 10% H2 and 80% N2, in the presence of palladium catalyst and indicator of anaerobiosis. Microaerophilic bacteria. The susceptibility of bacteria was determined by means of the agar dilution methods with Brucella agar supplemented with 5% sheep's blood. Samples solutions with concentrations from of 3.5- 0.2 mg/ml were added into agar. The agar plate without investigated samples was included as a bacterial growth control. The inoculum of 10^6 CFU/ml was applied to the agar plates with Steers replicator. The incubation was performed at 37° C. in anaerobic jars with Campy Pak (bio Merieux) for 48 hours. Streptococcus spp. The susceptibility of bacteria was determined by means of the agar dilution methods with Mueller-Hinton agar supplemented with 5% sheep's blood. Samples solutions with concentrations from of 3.5- 0.2 mg/ml were added into agar. The agar plate without investigated samples was included as a bacterial growth control. […] The susceptibility to investigated samples was determined by means of the plate dilution technique in Mueller-Hinton agar. […] The susceptibility of fungi to investigated samples was determined by means of the plate dilution technique in Sabouraud's agar. […]

[2] = In-vivo: tooth samples treated with peptide, 12 hours in the oral cavity, then acetic acid, Knoop hardness; design: species or system human; details: for B: Average initial hardness of the tooth surface (st. dev.): before treatment
Description: In another experiment, 126 sterilized tooth samples where treated with a variety of peptides, fixed to the device and positioned after the lower jaw in the oral cavity of 5 volunteers. The device remained in the oral cavity for a period of 12 hours after which the teeth where removed, cleaned and subjected to a drop of acetic acid (0.1N, 30 min., 37° C). Subsequently the acid was removed, the teeth where cleaned and the hardness was measured (Knoop method). The depth of penetration increased 8.82 μm, 5.40 μm, 5.32 μm and 3.77 μm respectively for teeth treated as blanco with 4.2% casein phosphopeptide e-polylysine copolymer, 7.5% phosvitin and with 4.2% bisphosphonylated e-polylysine. The p-values are respectively 0.000, 0.000 and 0.004 for casein phosphopeptide e-polylysine copolymer, bisphosphonylated e-polylysine and phosvitin.
Tooth samples have been cut in horizontal slices (thickness: 0.3 to 1 mm) with a Leitz 1600 tooth cutter with horizontal cutting blade; the slices are cut manually (with a bore) into small tooth samples that contain a small part of the original tooth surface. The tooth sample is positioned in a small plastic tube, that has been cut from a long plastic tube with 6 mm external diameter. The length of the tube is 3 to 6 mm. The inner part of the tube is filled with a polymer that hardens under light (Photoclearfil Bright; Kuraray). The tooth sample is positioned in the soft polymer inside the tube, in such a way that the original tooth surface is just surfacing above the tube. Finally the polymer is hardened with a light source. The tooth surface is polished with Struers silicon carbid paper (800-4000) and the hardness is measured 5 times on each of the samples under the Letiz Wetzlar microscope (weight on needle: 50 p). Tooth samples with a maximum average depth of penetration of 43 μm are retained for use in the oral cavity.
The tooth-samples are fixed to a device that has been described in the chapter “Description of the invention ( chapter: In-vivo experiments)” and the device is positioned in the oral cavity after the lower jaw.
A drop from a solution containing either, e-polylysine, CPP, bisphoshphonylated e-polylysine, casein phosphopeptide epsilon-polylysine copolymer or partially hydrolysed phosvitin has been positioned at the surface of tooth samples for a period of 30 minutes at 37 C.; the drop was removed and the procedure was repeated once more. All solutions contained also 3.1% CaCl2.2H2O and 1.7% KH2PO4 (except for the one containing e-polylysine).
The tooth surface was cleaned with a soft paper towel until it was visibly clean. Four such tooth samples where fixed to the device and located in the oral cavity behind the lower jaw. They resided in the oral cavity for a period of 12 hours (only to be removed during eating). Subsequently, they where removed, cleaned and the tooth surface was treated with a drop of acetic acid (0.1N, 30 min., 37° C.); the acid was removed, the tooth was washed with deionized water and the hardness was evaluated.
A: type of peptide ingredient in the solution (% on a w/w basis versus water). (*): the teeth where submerged (30 min.) in a saliva batch and dried afterwards on air, before they where treated with a solution that contained bisphosphonylated e-polylysine. B: Average initial hardness of the tooth surface; μm (st. dev.) C: Average hardness after treatment, after residing in the oral cavity and treatment with acid D: The average change in hardness (C−B) E: p-value (against blanco) of the Mann-Whitney statistical test F: the number of tooth samples that where treated with a specific formulation; hardness on each of the tooth samples was measured five times and an average value was calculated; most often 4 tooth samples per person; 5 volunteers participated to the experiment; the 132 tooth samples where randomized into groups (of 4 teeth) with the same average hardness value.

[3] = test system: microaerophilic bacteria isolated from the oral cavity; assay: Susceptibility (MIC), agar dilution, microaerophilic bacteria; format: cell-based
Description: as §1
The investigated samples were dissolved in sterile distilled water (immediately before the experiment) to obtain the following concentrations: 3.5, 1.7, 0.8, 0.4 and 0.2 mg/ml and were added into appropriate agar. The plates were inoculated using a Steers multipoint inoculator. Inoculum contained 10^6 CFU/spot. […]
Anaerobes. The susceptibility of bacteria was determined by means of the agar dilution methods with Brucella agar supplemented with 5% defibrinated sheep's blood, menadione and hemin. […] The susceptibility of bacteria was determined by means of the agar dilution methods with Brucella agar supplemented with 5% sheep's blood. […] The susceptibility of bacteria was determined by means of the agar dilution methods with Mueller-Hinton agar supplemented with 5% sheep's blood. […] The susceptibility to investigated samples was determined by means of the plate dilution technique in Mueller-Hinton agar. […]

[4] = 4.2% w/w solution, 12 hours oral cavity, acetic acid 0.1N 30 min

casein phosphopeptide epsilon-polylysine copolymer [(CPP x elys)n]
activity against aerobes [1]: not active
C: Average hardness after treatment, after residing in the oral cavity and treatment with acid [2, 4]: 46.21 (1.94) μm
D: average change in hardness (C−B) [2, 4]: 5.40 μm
D: average change in hardness (C−B) ([2]; 7.8% w/w solution): 2.41 μm
C: Average hardness after treatment, after residing in the oral cavity and treatment with acid ([2]; 7.8% w/w solution, 12 hours oral cavity, acid): 42.92 (1.43) μm
B: Average initial hardness of the tooth surface (st. dev.) ([2]; group for 4.2% solution): 40.81 (0.68) μm
B: Average initial hardness of the tooth surface (st. dev.) ([2]; group for 7.8% solution): 40.51 (1.55) μm

Epsilon-polylysine (elys; e-polylysine) [Product 6]
aerobes harvested from the oral cavity that are inhibited ([1]; at 0.2 to 0.4 mg/ml, 2 from 17): 12%
C: Average hardness after treatment, after residing in the oral cavity and treatment with acid [2, 4]: 47.81 (3.67) μm
D: average change in hardness (C−B) [2, 4]: 6.93 μm
B: Average initial hardness of the tooth surface (st. dev.) ([2]; group for 4.2% solution): 40.88 (0.91) μm
inhibitory concentration ([3]; 17 from 31 microaerophilic strains): 0.2 mg/mL

bisphosphonylated epsilon-polylysine [bisphosphonylated e-polylysine]
activity against aerobes [1]: not active
D: average change in hardness (C−B) ([2]; 4.2% solution (*): teeth submerged 30 min in saliva before treatment): 3.29 μm
C: Average hardness after treatment, after residing in the oral cavity and treatment with acid ([2]; 4.2% solution (*): teeth submerged 30 min in saliva before treatment, 12 hours oral cavity, acid): 44.05 (2.92) μm
C: Average hardness after treatment, after residing in the oral cavity and treatment with acid [2, 4]: 44.29 (2.08) μm
D: average change in hardness (C−B) [2, 4]: 3.77 μm
B: Average initial hardness of the tooth surface (st. dev.) ([2]; group for 4.2% solution (*)): 40.76 (0.73) μm
B: Average initial hardness of the tooth surface (st. dev.) ([2]; group for 4.2% solution): 40.52 (0.62) μm
mic value ([3]; 12 strains from 31 microaerophilic strains): 0.2 mg/mL
